Calls of active or inactive are those of the source. The rule behind the calls is not given here.
Key:
[1] = target: T1, C5a anaphylatoxin chemotactic receptor 1 (Homo sapiens) (UniProt P21730); experiment: Displacement of [125I]-C5a from C5aR in human MDM cells at 20 uM after 60 mins by microbeta scintillation counting analysis; type: cell-based
T1 sequence (whole entry): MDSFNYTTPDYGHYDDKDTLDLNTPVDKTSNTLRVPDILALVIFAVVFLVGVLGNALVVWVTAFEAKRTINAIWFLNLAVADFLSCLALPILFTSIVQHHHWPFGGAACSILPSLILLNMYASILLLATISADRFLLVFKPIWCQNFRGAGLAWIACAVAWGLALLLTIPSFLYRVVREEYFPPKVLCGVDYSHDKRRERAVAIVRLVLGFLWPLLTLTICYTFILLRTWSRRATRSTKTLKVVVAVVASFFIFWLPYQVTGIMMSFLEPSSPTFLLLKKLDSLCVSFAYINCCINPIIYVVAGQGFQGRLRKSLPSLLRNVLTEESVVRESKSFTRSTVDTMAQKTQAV

[2] = target: T2, C3a anaphylatoxin chemotactic receptor (Homo sapiens) (UniProt Q16581); experiment: Displacement of [125I]-C3a from C3aR in human MDM cells at 20 uM after 60 mins by microbeta scintillation counting analysis; type: cell-based
T2 sequence (whole entry): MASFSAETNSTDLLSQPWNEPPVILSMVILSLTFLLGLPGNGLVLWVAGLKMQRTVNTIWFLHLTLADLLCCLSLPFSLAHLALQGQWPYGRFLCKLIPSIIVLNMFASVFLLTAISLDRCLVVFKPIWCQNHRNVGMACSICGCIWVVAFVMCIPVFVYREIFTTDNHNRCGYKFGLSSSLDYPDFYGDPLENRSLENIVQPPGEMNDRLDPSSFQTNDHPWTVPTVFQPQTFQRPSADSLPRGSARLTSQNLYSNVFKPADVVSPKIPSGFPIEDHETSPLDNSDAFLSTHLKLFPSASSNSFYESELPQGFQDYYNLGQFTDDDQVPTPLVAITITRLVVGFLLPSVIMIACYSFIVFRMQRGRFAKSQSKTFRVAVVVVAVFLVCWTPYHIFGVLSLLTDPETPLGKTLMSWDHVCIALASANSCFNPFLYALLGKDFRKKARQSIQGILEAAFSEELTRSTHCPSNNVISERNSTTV

[3] = target: T2, C3a anaphylatoxin chemotactic receptor (Homo sapiens); experiment: Agonist activity at C3aR in human MDM cells assessed as inhibition of C3a-induced Ca2+ response at 10 uM measured for 60 secs by fluorescence assay relative to 100 nM C3a; type: functional, cell-based
[4] = target: T3, C3a anaphylatoxin chemotactic receptor (Homo sapiens, UniProt Q16581); experiment: Displacement of [125I]-C3a from C3aR in human MDM cells after 60 mins by microbeta scintillation counting analysis; type: cell-based
T3 sequence (Q16581 whole entry): T2 sequence (whole entry)

[5] = target: T2, C3a anaphylatoxin chemotactic receptor (Homo sapiens); experiment: Agonist activity at C3aR in human MDM cells assessed as intracellular calcium efflux at 1 uM measured for 60 secs by fluorescence based receptor desensitization assay; type: functional, cell-based
[6] = target: T3, C3a anaphylatoxin chemotactic receptor; experiment: Agonist activity at C3aR in human MDM cells assessed as inhibition of C3a-induced Ca2+ response measured for 60 secs by fluorescence assay; type: functional, cell-based

Row | SMILES | inhibition [1] | inhibition [2] | inhibition [3] | IC50 [4] | Activity [5] | EC50 [6]
1 | COc1ccc(CC(=O)N[C@@H](CC(C)C)c2nc(C(=O)N[C@@H](CCCNC(=N)N)C(=O)O)c(C)o2)cc1 | inactive | 40% | 26% |  |  | 
2 | CC[C@H](C)[C@H](NC(=O)c1ccccc1Oc1ccccc1)c1nc(C(=O)N[C@@H](CCCNC(=N)N)C(=O)O)co1 | inactive |  |  | 55 nM | Active | 
3 | Cc1oc([C@H](CC(C)C)NC(=O)c2ccc(C(F)(F)F)cc2)nc1C(=O)N[C@@H](CCCNC(=N)N)C(=O)O | inactive | 61% | 50% |  |  | 
4 | CC(C)C[C@H](NC(=O)C1c2ccccc2-c2ccccc21)c1nc(C(=O)N[C@@H](CCCNC(=N)N)C(=O)O)co1 | inactive |  |  | 142 nM |  | 
5 | CC[C@H](C)[C@H](NC(=O)Cc1c[nH]c2ccccc12)c1nc(C(=O)N[C@@H](CCCNC(=N)N)C(=O)O)co1 | inactive |  |  | 152 nM |  | 
6 | CC[C@H](C)[C@H](NC(=O)C1(C(C)C)C=CCC=C1)c1nc(C(=O)N[C@@H](CCCNC(=N)N)C(=O)O)co1 | inactive |  |  | 754 nM |  | 740 nM
7 | Cc1oc([C@H](CC(C)C)NC(=O)c2cc3ccccc3o2)nc1C(=O)N[C@@H](CCCNC(=N)N)C(=O)O | inactive | 19% | 84% |  |  | 
8 | Cc1oc([C@H](CC(C)C)NC(=O)c2cccnc2)nc1C(=O)N[C@@H](CCCNC(=N)N)C(=O)O | inactive | 29% | 68% |  |  | 
9 | CC[C@H](C)[C@H](NC(=O)c1ccc(OC)cc1OC)c1nc(C(=O)N[C@@H](CCCNC(=N)N)C(=O)O)co1 | inactive |  |  | 870 nM |  | 
10 | Cc1oc([C@H](CC(C)C)NC(=O)CCC(C)C)nc1C(=O)N[C@@H](CCCNC(=N)N)C(=O)O | inactive | inactive | 95% |  |  | 
11 | Cc1ccc(NC(=O)N[C@@H](CC(C)C)c2nc(C(=O)N[C@@H](CCCNC(=N)N)C(=O)O)c(C)o2)cc1 |  | inactive | 64% |  |  | 
12 | COc1ccc(OC)c(CC(=O)N[C@@H](CC(C)C)c2nc(C(=O)N[C@@H](CCCNC(=N)N)C(=O)O)c(C)o2)c1 | inactive | 42% | 69% |  |  | 
13 | COc1cccc(C(=O)N[C@@H](CC(C)C)c2nc(C(=O)N[C@@H](CCCNC(=N)N)C(=O)O)c(C)o2)c1 | inactive | inactive | 134% |  |  | 
14 | COc1ccc(CCC(=O)N[C@@H](CC(C)C)c2nc(C(=O)N[C@@H](CCCNC(=N)N)C(=O)O)c(C)o2)cc1 | inactive | 44% | 44% |  |  | 
15 | CC[C@H](C)[C@H](NC(=O)c1cccc(OC)c1OC)c1nc(C(=O)N[C@@H](CCCNC(=N)N)C(=O)O)co1 | inactive |  |  | 710 nM |  | 
16 | CC(C)C[C@H](NC(=O)Cc1ccc(F)cc1)c1nc(C(=O)N[C@@H](CCCNC(=N)N)C(=O)O)co1 | inactive |  |  | 102 nM | inactive | 
17 | CC[C@H](C)[C@H](NC(=O)C1CCCc2ccccc21)c1nc(C(=O)N[C@@H](CCCNC(=N)N)C(=O)O)co1 (stereo not given in full) | inactive |  |  | 104 nM |  | 
18 | Cc1oc([C@H](CC(C)C)NC(=O)c2ccc(/N=N/c3ccccc3)cc2)nc1C(=O)N[C@@H](CCCNC(=N)N)C(=O)O | inactive | 49% | 48% |  |  | 
19 | Cc1oc([C@H](CC(C)C)NC(=O)c2cncc(Br)c2)nc1C(=O)N[C@@H](CCCNC(=N)N)C(=O)O | inactive | inactive | 105% |  |  | 
20 | Cc1oc([C@H](CC(C)C)NC(=O)CC(C)(C)C)nc1C(=O)N[C@@H](CCCNC(=N)N)C(=O)O | inactive | 44% | 70% |  |  | 
21 | CC[C@H](C)[C@H](NC(=O)c1ccc(N(C)C)cc1)c1nc(C(=O)N[C@@H](CCCNC(=N)N)C(=O)O)co1 | inactive |  |  | 800 nM |  | 
22 | CC(C)Cc1ccc(C(C)C(=O)N[C@@H](CC(C)C)c2nc(C(=O)N[C@@H](CCCNC(=N)N)C(=O)O)co2)cc1 (stereo not given in full) | inactive |  |  | 1030 nM |  | 

Row | SMILES | inhibition [1] | inhibition [2] | inhibition [3] | IC50 [4] | Activity [5] | EC50 [6]
23 | CC[C@H](C)[C@H](NC(=O)CCC(=O)c1ccc(-c2ccccc2)cc1)c1nc(C(=O)N[C@@H](CCCNC(=N)N)C(=O)O)co1 | inactive |  |  | 150 nM | inactive | 
24 | COc1ccccc1CC(=O)N[C@@H](CC(C)C)c1nc(C(=O)N[C@@H](CCCNC(=N)N)C(=O)O)c(C)o1 | inactive | 43% | 81% |  |  | 
25 | Cc1oc([C@H](CC(C)C)NC(=O)c2cc3ccccc3[nH]2)nc1C(=O)N[C@@H](CCCNC(=N)N)C(=O)O | inactive | 26% | 56% |  |  | 
26 | Cc1oc([C@H](CC(C)C)NC(=O)S(=O)(=O)c2ccccc2)nc1C(=O)N[C@@H](CCCNC(=N)N)C(=O)O | inactive | 44% | 103% |  |  | 
27 | CC[C@H](C)[C@H](NC(=O)c1ccccc1)c1nc(C(=O)N[C@@H](CCCNC(=N)N)C(=O)O)co1 | inactive |  |  | 27 nM |  | 
28 | Cc1oc([C@H](CC(C)C)NC(=O)c2cc3ccccc3s2)nc1C(=O)N[C@@H](CCCNC(=N)N)C(=O)O | inactive | 14% | 62% |  |  | 
29 | CC(C)C[C@H](NC(=O)OC(C)(C)C)c1nc(C(=O)N[C@@H](CCCNC(=N)N)C(=O)O)co1 | inactive |  |  | 20 nM | inactive | 19 nM
30 | Cc1oc([C@H](CC(C)C)NC(=O)NCc2ccccc2)nc1C(=O)N[C@@H](CCCNC(=N)N)C(=O)O | inactive | 61% | 50% |  |  | 
31 | Cc1oc([C@H](CC(C)C)NC(=O)c2ccncc2)nc1C(=O)N[C@@H](CCCNC(=N)N)C(=O)O | inactive | inactive | 109% |  |  | 
32 | Cc1oc([C@H](CC(C)C)NC(=O)c2ccccn2)nc1C(=O)N[C@@H](CCCNC(=N)N)C(=O)O | inactive | 31% | 77% |  |  | 
33 | COc1ccc(CC(=O)N[C@@H](CC(C)C)c2nc(C(=O)N[C@@H](CCCNC(=N)N)C(=O)O)c(C)o2)cc1OC | inactive | 65% | 67% |  |  | 
34 | COc1cccc(CC(=O)N[C@@H](CC(C)C)c2nc(C(=O)N[C@@H](CCCNC(=N)N)C(=O)O)c(C)o2)c1 | inactive | 41% | 87% |  |  | 
35 | CC[C@H](C)[C@H](NC(=O)OC(C)(C)C)c1nc(C(=O)N[C@@H](CCCNC(=N)N)C(=O)O)co1 | inactive |  |  |  | inactive | 
36 | CC[C@H](C)[C@H](NC(=O)c1ccc(C(=O)c2ccccc2)cc1)c1nc(C(=O)N[C@@H](CCCNC(=N)N)C(=O)O)co1 | inactive |  |  | 157 nM |  | 
37 | CC(C)C[C@H](NC(=O)C(C)c1ccc(N2Cc3ccccc3C2=O)cc1)c1nc(C(=O)N[C@@H](CCCNC(=N)N)C(=O)O)co1 (stereo not given in full) | inactive |  |  | 450 nM |  | 
38 | Cc1oc([C@H](CC(C)C)NC(=O)c2ccc(Oc3ccccc3)cc2)nc1C(=O)N[C@@H](CCCNC(=N)N)C(=O)O | inactive | 32% | 68% |  |  | 
39 | CC[C@H](C)[C@H](NC(=O)c1cncc(Br)c1)c1nc(C(=O)N[C@@H](CCCNC(=N)N)C(=O)O)co1 | inactive |  |  | 5 nM | inactive | 
40 | Cc1oc([C@H](CC(C)C)NC(=O)C2CCCCC2)nc1C(=O)N[C@@H](CCCNC(=N)N)C(=O)O | inactive | 39% | 107% |  |  | 
41 | CC[C@H](C)[C@H](NC(=O)C(C)c1ccc2cc(OC)ccc2c1)c1nc(C(=O)N[C@@H](CCCNC(=N)N)C(=O)O)co1 (stereo not given in full) | inactive |  |  |  |  | 
42 | CC[C@H](C)[C@H](NC(=O)C(c1ccccc1)c1ccccc1)c1nc(C(=O)N[C@@H](CCCNC(=N)N)C(=O)O)co1 | inactive |  |  | 137 nM |  | 
43 | Cc1oc([C@H](CC(C)C)NC(=O)CC2CCCCC2)nc1C(=O)N[C@@H](CCCNC(=N)N)C(=O)O | inactive | 26% | 69% |  |  | 

— ChEMBL document CHEMBL3734743, “Potent complement C3a receptor agonists derived from oxazole amino acids: Structure-activity relationships” (Bioorg Med Chem Lett, 2015)
